The source of these data is patent US9229013B2, “Vasoactive hormone-based stratification of patients suffering from diseases related to endothelial function/dysfunction” (B.R.A.H.M.S GMBH, priority 2009, dated 2016).

Structures are written as SMILES. Several values for one entry are separate records, joined by “and”; a condition that tells them apart may be missing. Equal entries are not always repeated.

Assay [1] relates to patients suffering from shortness of breath (SOB), acute coronary syndrome, acute heart failure (AHF), arrhythmia, asthma exacerbation, bronchitis, chest pain …. Further details: species or system human. Conditions: in vivo. The text has this:
(§1) Suitable threshold levels for the stratification of subjects into different groups (categories) have to be determined for each particular combination of vasoactive hormone or fragments thereof or precursors or fragments thereof, medication and disease. This can e.g. be done by grouping a reference population of patients according to their level of vasoactive hormone into certain quantiles, e.g. tertiles, quartiles, quintiles or even according to suitable percentiles. […] A HR around 1 (e.g. +/−0.1) indicates no elevated risk but also no benefit from medication for the particular group of patients.
(§2) Survival rates, i.e. the proportion of patients surviving at a given time after entry into the studies, are plotted in the appended figures over time for different combinations of a particular vasoactive hormone with a particular medication. The patients have been stratified into quintiles according to their respective hormone levels. […] For some cases, two or more quintiles have been pooled were appropriate. Hazard ratios (HR) have been calculated for various combinations of particular vasoactive hormones with particular medications. HR have also been calculated for particular quintiles and/or pooled quintiles and compared to overall HR for each combination.

Assay [2] relates to patients with severe congestive heart failure in NYHA class IV. To be noted: mortality after 6 months; patients stratified by peptide concentrations below and above median; cited from earlier work.
Assay [3] relates to patients with chronic ischemic left ventricular dysfunction. Conditions: patients exhibiting a higher pre-treatment plasma NT-proBNP and adrenomedullin (ADM); cited from earlier work.
Assay [4] deals with patients having suffered a myocardial infarction. Nature of the assay: LAMP study (Outcome Death): hazard ratio medication vs no medication, stratified by biomarker quintile. Conditions: for HR Medicament in Marker-Quantile 1 / HR Medicament in Marker-Quantile 2-4 / HR Medicament in Marker-Quantile 5 / HR Medicament (overall patient group): LAMP, Outcome Death. It counts as in vivo, human.
Excerpt: as §1
(§3) FIGS. 14 to 21 illustrate the survival rate for patients suffering from myocardial infarction from the “Leicester Acute Myocardial Infarction Peptide Study” (“LAMP”). FIGS. 22 to 34 illustrate the rate of major cardiac events for patients suffering from acute myocardial infarction from “LAMP-Study”.
Acute myocardial infarction was subcategorized into ST-segment elevation myocardial infarction (STEMI) or non-ST-segment myocardial infarction (NSTEMI).
Blood samples were drawn on 1 occasion 3 to 5 days after the onset of chest pain. After 15 min bed rest, 20 ml blood was collected into tubes containing ethylendiaminetetraacetic acid (EDTA) and aprotinin. All plasma samples were stored at −70° C. until assayed in a blinded fashion in a single batch.
as §2

For assay [5] the test system is unchanged. Nature of the assay: LAMP study (Outcome MACE): hazard ratio medication vs no medication, stratified by biomarker quintile. It is filed as in vivo, human.
Excerpt: as §1, with “patients. By comparison of the HR between certain quantiles of patients with each other and with the HR of the overall population of patients, it is possible to identify those quantiles of patients who have an elevated risk and those who benefit from medication and thereby stratify subjects according to the present invention.” for “patients.”
as §3
The study involved 983 consecutive patients with acute myocardial infarction (AMI) admitted to the Coronary Care Unit of Leicester Royal Infirmary. […] Acute myocardial infarction was subcategorized into ST-segment elevation myocardial infarction (STEMI) or non-ST-segment myocardial infarction (NSTEMI).
Blood samples were drawn on 1 occasion 3 to 5 days after the onset of chest pain. After 15 min bed rest, 20 ml blood was collected into tubes containing ethylendiaminetetraacetic acid (EDTA) and aprotinin. All plasma samples were stored at −70° C. until assayed in a blinded fashion in a single batch. In a subgroup of 132 patients from the original 983-patient cohort, blood sampling was performed daily for 5 days from admission to discharge.
as §2

In the case of `CC(=O)CC(c1ccccc1)c1c(O)c2ccccc2oc1=O` (stereo not shown) [Warfarin], in assay [1], the “HR Medicament (overall patient group)” value is 1.6 and 1 and 1.3 and 0.8.
As for `CCOC(=O)[C@H](CCc1ccccc1)N[C@@H](C)C(=O)N1CCC[C@H]1C(=O)O` [elanapril], the effect on mortality result in assay [2] is listed as “beneficial effect”.
On to `COc1ccccc1OCCNCC(O)COc1cccc2[nH]c3ccccc3c12` (stereo not shown) [carvedilol], for which, in assay [3], the “effect on mortality and heart failure” value was “reduced mortality and heart failure”.
On to `O=[N+]([O-])O` [Nitrate], for which the deaths with medication in assay [4] (FIG. 16A, marker CT-proAVP, overall population, n=494 with medication) is 23; in assay [4] (FIG. 16B, 1st CT-proAVP quintile (0.31-4.6 pmol/L), n=69 with medication), 2; in assay [4] (FIG. 16C, 2nd to 4th CT-proAVP quintiles (4.6-42.1 pmol/L), n=318 with medication), 11; in assay [4] (FIG. 16D, 5th CT-proAVP quintile (42.1-1040 pmol/L), n=107 with medication) it was 10. Further, the “HR Medicament in Marker-Quantile 1” value in assay [4] (CT-ET-1 3.7-65.4 pmol/L) is listed as 1; in assay [4] (CT-proAVP 0.31-4.6 pmol/L) it was 4.8; in assay [4] (MR-proANP 14.5-59.6 pmol/L), greater than 100; in assay [4] (NT-proBNP 0.12-184 pg/mL), 1.9; in assay [5] (CT-proAVP 0.3-3.6 pmol/L) it was 2.8; in assay [5] (CT-proET-1 4.6-56.6 pmol/L) it was 2.4. Further, the “HR Medicament in Marker-Quantile 1” value in assay [5] (MR-proADM 0.09-0.53 nmol/L) was found to be 2.4; in assay [5] (MR-proANP 4.9-65 pmol/L) it was 3.8; in assay [5] (NT-proBNP 0.12-184 pg/mL), 2.4. The “HR Medicament in Marker-Quantile 2-4” value in assay [4] (CT-ET-1 65.4-136 pmol/L) came to 1; in assay [4] (CT-proAVP 4.6-42.1 pmol/L), 0.7; in assay [4] (MR-proANP 59.6-283 pmol/L) it was 0.9; in assay [4] (NT-proBNP 184-2700 pg/mL), 0.6; in assay [5] (CT-proAVP 3.6-18.7 pmol/L) it was 1.2; in assay [5] (CT-proET-1 56.6-118 pmol/L), 0.9. For the same compound, the “HR Medicament in Marker-Quantile 2-4” value in assay [5] (MR-proADM 0.53-1.16 nmol/L) was 0.9; in assay [5] (MR-proANP 65-264 pmol/L), 1; in assay [5] (NT-proBNP 184-2700 pg/mL), 0.8. Besides, the “HR Medicament in Marker-Quantile 5” value in assay [4] (CT-ET-1 136-468 pmol/L) worked out at 0.3; in assay [4] (CT-proAVP 42.1-1040 pmol/L) it was 0.3; in assay [4] (MR-proANP 283-1650 pmol/L), 0.3; in assay [4] (NT-proBNP 2700-34100 pg/mL) it was 0.5; in assay [5] (CT-proAVP 18.7-441 pmol/L), 0.6; in assay [5] (CT-proET-1 118-671 pmol/L), 0.9. Further, the entries for the “HR Medicament in Marker-Quantile 5” value in assay [5] (MR-proADM 1.16-6.95 nmol/L), in assay [5] (MR-proANP 264-1630 pmol/L) and in assay [5] (NT-proBNP 2700-34100 pg/mL) were 1, 0.8 and 0.9, respectively. Besides, the “HR Medicament (overall patient group)” value in assay [4] (biomarker CT-ET-1) worked out at 0.6; in assay [4] (biomarker CT-proAVP) it was 0.5; in assay [4] (biomarker MR-proANP) it was 0.5; in assay [4] (biomarker NT-proBNP), 0.7; in assay [5] (biomarker CT-proAVP), 1.1; in assay [5] (biomarker CT-proET-1), 1.1. For the same compound, the “HR Medicament (overall patient group)” value in assay [5] (biomarker MR-proADM) is given as 1.1; in assay [5] (biomarker MR-proANP), 1.1; in assay [5] (biomarker NT-proBNP), 1.
